The values below come from patent US20210275514A1, “COMPOUNDS FOR USE IN TREATING KIDNEY DISORDERS” (Hoffmann-La Roche Inc., priority 2018, published 2021).

Data set [1] relates to differentiated human podocytes. Kind of data set: Compound cytotoxicity in differentiated human podocytes (ApoTox-Glo Triplex Assay). The format is cell-based. Particulars: 18 h. The protocol:
Podocytes were seeded in 96-well plates (Greiner) and allowed to differentiate for 14 days. Cells were then washed with PBS, and incubated with media (RPMI-0.2% BSA) with or without vehicle and compounds for 18 h at 37° C., 5% CO2. Compound concentrations tested were 1 μM, 5 μM, 10 μM and 20 μM. Vehicle (DMSO) final concentration was 0.1%. All treatments were done in duplicates. Cytotoxicity was assayed using ApoTox-Glo Triplex Assay (Promega) following manufacturer's instructions. Briefly, cell-permeant (GF-AFC) and cell impermeant (bis-AAF-R110) peptide substrates were diluted and added to all wells and the cells were incubated at 37° C., 5% CO2 for 1 hr. A set of cells were treated with saponin (2 mg/ml) as a positive control of cell cytotoxicity. Cell viability and cytotoxicity fluorescence signals were measured at 400 nm/505 nm and 485 nm/520 nm Excitation/Emission, respectively using a fluorescence microplate reader (SpectraMax i3). RFU signal obtained with the cell toxicity substrate was normalized to the one obtained with the viable substrate in the same well to eliminate the effect of different cell numbers per well.

Data set [2] relates to ABCA1. The data set can be described thus: ABCA1 expression by western blot in differentiated podocytes. The format is cell-based, human. Particulars: 18 h. As to the method:
Podocytes differentiated for 14 days were starved in RPMI-0.2% FBS for 18 h and then treated with freshly prepared dilutions of compounds in full media for 18 h at 37° C. and 5% CO2. Compound concentrations of 1 μM, 5 μM and 10 μM were evaluated. Cells were then washed with PBS and lysed with 1× cell lysis buffer (Cell Signaling) supplemented with protease and phosphatase inhibitor cocktails (Roche). Total protein content was determined by BCA method (Pierce, Thermoscientific). ABCA1 expression was analyzed by western blot.
Lysates, or cell fractions were incubated with buffer sample at 55° C. for 10 min under reducing conditions. A total of […] of protein in lysates, and one third of the volume collected in cell fraction preps, were separated by SDSPAGE in 4-20% gels (Biorad) and proteins were then transferred to PVDF membranes. Membranes were blocked with 5% milk and blotted with protein-specific antibodies for 18 h at 4° C. The following antibodies were used: mouse anti-ABCA1 (Abcam; 1:1,000), rabbit anti-GAPDH antibody (Millipore; 1:10,000), rabbit anti-MEK and anti-Na^+/K^+ ATPase (Cell Signaling; 1:1,000). After washing with PBS-T, membranes were incubated with anti-mouse and anti-rabbit specific antibodies conjugated to HRP (Promega) 1:10,000 in 5% milk. Membranes were washed and signal was developed using Western bright ECL substrate (Advansta).
On the technique in general: A western blot detects proteins with antibodies after separation by electrophoresis.

The subject of data set [3] is ADR-induced nephropathy in Balb/c mice. The data set can be described thus: Adriamycin-induced kidney damage, dose finding experiment, 35 days. It is filed as in vivo, mouse. Particulars: for Albuminuria / proteinuria / Body weight loss: 5 weeks after ADR; for TOTAL CHOL (blood) / TRIGLYCERIDES (blood): 35 days after ADR injection. The protocol: First, we performed a preliminary experiment to explore the best dose of compounds to be used and to determine if other experimental variables needed to be adjusted. In this experiment, 30 mice received a single dose of Adriamycin (Sigma-Aldrich, 12 mg/Kg, via tail vein injection) and then were randomly separated into 6 groups of 5 mice each. Another 5 mice were injected with 0.9% NaCl by the same route and were used as a no-kidney injury baseline group. Starting 24 h after ADR injection, vehicle, or different doses of compounds, were given once daily by oral gavage for 35 days. The doses of compounds tested were the following: LXR agonist (Cpd C, 10 mg/Kg); ABCA1 inducers Cpd A and Cpd G (30 mg/Kg and 100 mg/Kg). Body weight measurements and spot urine collection was done once a week. Animals were sacrificed 35 days after ADR injection (FIG. 1).
Spot urine samples were collected for all mice at baseline and time of sacrifice. Urinary albumin and creatinine were determined using an albumin ELISA kit (Bethyl laboratories) and a colorimetric assay for creatinine determination (Stanbio). Albuminuria was calculated and expressed as μg of albumin divided by mg of creatinine. For diabetic mouse model, weight and glycaemia were measured on a bi-weekly basis.

In data set [4] the test system is ADR-injected Balb/c mice. The data set can be described thus: Toxicity by serology in ADR-injected mice (WBC, hemoglobin, hematocrit, transaminases). Particulars: for ALT / HCT / HEMOGLOBIN / WBC: 35-day treatment, ADR-injected; for liver toxicity and blood dyscrasias (serology): all treated animals. It is filed as in vivo, mouse. The text has this: We next investigated compounds C, A and G toxicity by serology. More specifically, we determined hematocrit, hemoglobin white cell blood count and liver transaminases ALT and AST of all treated animals to determine if liver toxicity and blood dyscrasias were associated with the compounds.

Setting [5] is: concentrations above 10 uM, FIG. 3.
[6] abbreviates: 30 mg/Kg once daily oral gavage.
The mark [7] stands for this setting: 100 mg/Kg once daily oral gavage.

Each structure is given as a SMILES string. Entries after “also recorded” stand apart in the source; their conditions may differ.

Regarding `O=C(N[C@@H]1CCCC[C@H]1O)c1ccc(OCC(F)(F)F)c(-c2ccc(Cl)c(Cl)c2)n1` [Cpd A, 6-(3,4-Dichlorophenyl)-N-[(1R,2R)-2-hydroxycyclohexyl]-5-(2,2,2-trifluoroethoxy)pyridine-2-carboxamide], in data set [1] (20 μM), the Cytotoxicity entry is “significant toxicity”. In data set [1] (setting [5]), the Cytotoxicity entry is given as “significant toxicity”. In addition, the “ABCA1 expression (western blot, whole cell lysates)” value (“ABCA1 expression” below) in data set [2] (5 uM, FIG. 4B) is on record as “modest increase”. Also, in data set [2] (10 uM), the “ABCA1 expression” value is recorded as “modest induction; also recorded: increased ABCA1 expression”. Also, in data set [3] (setting [6]), the Albuminuria / proteinuria entry was “attenuated; also recorded: reduced” and the Body weight loss result is “partially attenuated; also recorded: prevented”. In data set [3] (30 mg/Kg), the “TOTAL CHOL (blood)” value is given as 86.3 ± 8.8 mg/dL and the TRIGLYCERIDES (blood) was determined as 57.6 ± 15.5 mg/dL. For the same compound, in data set [3] (100 mg/Kg), the “TOTAL CHOL (blood)” value was 226.7 ± 173.4 mg/dL and the TRIGLYCERIDES (blood) stood at 47.3 ± 7.5 mg/dL. Besides, in data set [4] (30 mg/Kg), the ALT worked out at 365.3 ± 181.2 U/L, the HCT amounted to 51.8 ± 3.3%, the HEMOGLOBIN is given as 13.9 ± 1.1 g/dL and the WBC was 4.6 ± 1.3 ×10^∧3 cells/ul. The “liver toxicity and blood dyscrasias (serology)” value in data set [4] is “No apparent signs of such toxicities”. For the same compound, in data set [4] (first ALT line (r15), 30 mg/Kg), the ALT worked out at 339.3 ± 274.8 U/L.

For the compound `Cc1oc(-c2cccc(C(F)(F)F)c2)nc1Cn1c(C)cc2cc(C(O)(C(F)(F)F)C(F)(F)F)ccc21` [Cpd C, 1,1,1,3,3,3-Hexafluoro-2-{2-methyl-1-[5-methyl-2-(3-trifluoromethyl-phenyl)-oxazol-4-ylmethyl]-1H-indol-5-yl}-propan-2-ol, reference compound], the Cytotoxicity result in data set [1] (20 μM) is on record as “significant toxicity”. In addition, the Cytotoxicity result in data set [1] (setting [5]) was “significant toxicity”. Further, the “ABCA1 expression” value in data set [2] (doses as low as 1 uM, FIG. 4A) is listed as “strong induction; also recorded: markedly increased”. For the same compound, in data set [3] (10 mg/Kg once daily oral gavage), the Albuminuria / proteinuria result was “No significant differences”. For the same compound, in data set [3] (10 mg/Kg), the “TOTAL CHOL (blood)” value is given as 117.4 ± 66.8 mg/dL and the TRIGLYCERIDES (blood) worked out at 57.2 ± 6.3 mg/dL. Moreover, in data set [4] (10 mg/Kg), the ALT was determined as 213.0 ± 151.7 U/L, the HCT is given as 44.8 ± 1.5%, the HEMOGLOBIN turned out to be 12.2 ± 1.0 g/dL and the WBC is 7.6 ± 4.4 ×10^∧3 cells/ul. Moreover, the “liver toxicity and blood dyscrasias (serology)” value in data set [4] is reported as “No apparent signs of such toxicities”. Moreover, the ALT in data set [4] (first ALT line (r15), 10 mg/Kg) was 299.5 ± 365.0 U/L.

As to `O=C(N[C@@H]1CCCC[C@H]1O)c1cnc(OCC(F)(F)F)c(-c2ccc(Cl)c(Cl)c2)c1` [Cpd G, 5-(3,4-dichloro-phenyl)-N-((1R,2R)-2-hydroxy-cyclohexyl)-6-(2,2,2-trifluoro-ethoxy)-nicotinamide], in data set [2] (10 uM), the “ABCA1 expression” value is recorded as “modest induction; also recorded: modest increase; also recorded: increased ABCA1 expression”. For the same compound, in data set [3] (30 mg/Kg), the “TOTAL CHOL (blood)” value came to 136.3 ± 38.9 mg/dL and the TRIGLYCERIDES (blood) is 51 ± 16.8 mg/dL. In data set [3] (setting [7]), the Albuminuria / proteinuria result is “attenuated; also recorded: reduced” and the Body weight loss entry was “partially attenuated; also recorded: prevented”. Also, in data set [3] (100 mg/Kg), the “TOTAL CHOL (blood)” value is 109.7 ± 11.0 mg/dL and the TRIGLYCERIDES (blood) was found to be 62 ± 16.5 mg/dL. For the same compound, in data set [4] (30 mg/Kg), the ALT is recorded as 323.4 ± 87.1 U/L, the HCT turned out to be 49.5 ± 4.4%, the HEMOGLOBIN is 12.9 ± 1.0 g/dL and the WBC is 6.3 ± 1.2 ×10^∧3 cells/ul. Further, in data set [4] (100 mg/Kg), the ALT worked out at 212.4 ± 91.1 U/L, the HCT came to 49.6 ± 2.3%, the HEMOGLOBIN worked out at 13.1 ± 0.6 g/dL and the WBC was 4.7 ± 1.6 ×10^∧3 cells/ul. For the same compound, the “liver toxicity and blood dyscrasias (serology)” value in data set [4] is given as “No apparent signs of such toxicities”. In addition, the ALT in data set [4] (first ALT line (r15), 30 mg/Kg) is listed as 181.6 ± 69.0 U/L. In addition, the ALT in data set [4] (first ALT line (r15), 100 mg/Kg) was determined as 191.4 ± 79.9 U/L.
